Experimental findings from patent US20160213639A1, “COMPOSITIONS AND METHODS FOR TREATING NON-ALCOHOLIC STEATOHEPATITIS” (MOCHIDA PHARMACEUTICAL CO., LTD., priority 2013, published 2016) are described below.

In the test the test system is NASH. As to the kind of experiment: Phase II NASH trial: liver histology (NAS, steatosis, ballooning, inflammation, fibrosis). The format is in vivo, human. The note with it: for subjects who met the primary endpoint: 12 months, p=ns vs placebo (20); for mean decrease in NAS: placebo 0.9, p=n.s.; for subjects with a decrease in NAS by more than 2 points: placebo sixteen, p=n.s. The text has this: This example provides the protocol used for an ongoing phase II clinical trial, double blind, placebo-controlled study to investigate the safety, efficacy, and pharmacokinetic profile of two doses of EPA-E in subjects with NASH. Up to 70 subjects were enrolled into each treatment arm, for a total of 210 subjects to be enrolled. Block randomization using an interactive voice response system (IVRS) was used to assign patients in a 1:1:1 ratio to two active doses and placebo. Patients were stratified at randomization by presence or absence of diabetes. Patients with diabetes comprised no more than 25% of the total number of patients enrolled. Subjects were treated with 600 mg EPA-E, 900 mg EPA-E or placebo three times a day for one year.
In order to support the trial, EPA-E capsules and matching placebo capsules were prepared. EPA-E capsule is an oval soft gelatin capsule containing 300 mg of EPA-E as an active ingredient. […] These capsules are unidentifiable as EPA-E capsules or placebo capsules.
Subjects were administered orally 3 capsules 3 times daily, immediately after meals.
Adult subjects with biopsy-confirmed NASH within six months prior to randomization or those with suspected NASH were screened for the study. […] The histology was assessed using the NASH CRN criteria. The histological entry criteria included (1) the presence of possible or definite steatohepatitis, and (2) a NAFLD activity score (NAS) ≧4 with a minimum score of 1 each for steatosis and inflammation plus either ballooning or at least stage 1a sinusoidal fibrosis. The nonalcoholic nature of the disease was defined by a history of consumption of less than 3 drinks daily (approximately 10 gm alcohol/drink) for the previous 5 years. Those who exceeded these limits at the time of randomization or for more than 3 consecutive months within the five year time frame were excluded.
The liver biopsies from subjects being considered for the trial were sent to a central pathology laboratory where they were read and scored. A total of 4 pathologists with experience in liver histopathology reviewed the biopsies. All the pathologists underwent a training session conducted by the lead pathologist (OWC) prior to the study. After slide quality assessment, the cases were randomly assigned to 2 reviewers who scored fatty change, lobular inflammation, hepatocyte ballooning and fibrosis as previously described. If there was a discrepancy between any of these evaluations, a third randomly assigned reviewer agreed with one of the choices thereby producing a single concordant NAS and fibrosis score for the biopsy.
Following confirmation of eligibility based on both inclusion and exclusion criteria, subjects were randomized to receive placebo or one of two doses of EPA-E (1800 mg/day or 2700 mg/day) in three divided doses daily. Block randomization using an interactive voice response system was used to assign subjects in a 1:1:1 ratio between the three arms. Subjects were stratified by the presence of diabetes, impaired glucose tolerance or metabolic syndrome on stable doses of medication. The total fraction of such individuals was capped at 40% of the study cohort.
All subjects were followed according to a predefined clinic schedule. Data from unscheduled visits were collected in separate forms. Following twelve months of treatment, all subjects underwent a protocol-driven liver biopsy. Study drug was then discontinued.
The primary one-year efficacy endpoint was a composite of either a NAS <3 without worsening of fibrosis or a drop in NAS by 2 or more with contribution from more than one parameter and no worsening of fibrosis. The proportions of subjects meeting this endpoint after 12 months of treatment in those receiving EPA-E were compared to those receiving placebo using the Cochrane-Armitage trend test. A short-term efficacy endpoint was changes from baseline in alanine aminotransferase at 3 and 6 months. This was assessed by analysis of covariance. […]

SMILES strings stand for the structures.

For the molecule `CC/C=C\C/C=C\C/C=C\C/C=C\C/C=C\CCCC(=O)OCC` [EPA-E, ethyl all-cis-5,8,11,14,17-eicosapentaenoate], the “distribution of fibrosis scores” value (any of the treatment arms, over the duration of the study) is on record as “no significant changes in the distribution of fibrosis scores”. Besides, the steatosis grade result (cohort as a whole, low dose and high dose, efficacy evaluable dataset) is given as “Neither low dose-nor high dose-EPA-E affected the steatosis grade significantly”. Moreover, the “subjects who met the primary endpoint” value was determined as 22 subjects (high dose EPA-E (2700 mg/day)) and 19 subjects (low dose EPA-E (1800 mg/day)). Further, the “mean decrease in NAS” value was 0.8 (high dose EPA-E (2700 mg/day)) and 1 (low dose EPA-E (1800 mg/day)). Moreover, the “subjects with a decrease in NAS by more than 2 points” value by setting is: (high dose EPA-E (2700 mg/day)) 18 subjects; (low dose EPA-E (1800 mg/day)) 16 subjects. The “cytological ballooning and lobular inflammation scores” value (low dose and high dose, efficacy evaluable dataset) was “not significantly altered”. Besides, the “increased likelihood of beneficial impact on overall NAS score” value (women <50, 1800 mg/day vs placebo, adjusted, p<0.03) is recorded as 10 fold and the “increased likelihood of beneficial impact on overall NAS score” value (women <50, 2700 mg/day vs placebo, adjusted, p<0.04) stood at 7 fold. Also, under “women <50, 1800 mg/day vs placebo, adjusted, p<0.04”, the “increased likelihood of beneficial impact on steatosis grade” value is listed as 8 fold. The “odds ratio, beneficial impact in steatosis” value (women under 50 years of age, low dose EPA-E vs placebo, adjusted for baseline histology, BMI and changes in BMI, p=0.03) is 7.9. For the same molecule, the “odds ratio, beneficial impact in overall NAS” value amounted to 10.5 (women under 50 years of age, low dose EPA-E vs placebo, adjusted, p=0.02) and 6.8 (women under 50 years of age, second value (dose group not given), adjusted, p=0.03).
